The values below come from PubChem BioAssay AID743417 (Broad Institute, 2014).

The assay relates to Clone20 osteoblast Shn3 3'UTR firefly luciferase, 24 h. Put plainly: Shn3 3'UTR reporter inhibitors, dose response, cell-based, Clone20 osteoblasts, luminescence, dry powder, set 2 (AID 743417).

Structures are written as SMILES. Records with an inconclusive call do not appear. The source made the active and inactive calls.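 The calls were made as follows: active = compounds lowering the luciferase signal with a fitted half-maximal dose at most twice their top valid dose (cut at about 30 µM in these data); inconclusive = flat fits with moderate signal loss, or poor fits; inactive = the rest.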 Some results are limits rather than exact numbers.

On to `O=C1C=CC(O)(c2cc(=O)c3c(O)cc(O)cc3o2)C=C1`, for which the concentration at half-maximal activity (AC50) is 5120 nM.

For `CC1=C(C(=O)NC2CCCc3c2cnn3-c2cccc(C)c2C)OCCO1` (stereo not given), the AC50 was 3490 nM. Regarding `Cc1ccc(S(=O)(=O)CCC(=O)OCC(=O)Nc2cc(S(=O)(=O)N3CCOCC3)ccc2C)cc1`, the AC50 was 17800 nM. Then `CC(C)C1C(=O)N(Cc2cn(CCC3OCCO3)nn2)CCS(=O)(=O)N1Cc1ccc(-c2ccc(Cl)cc2)cc1` (stereo not given), with 2130 nM. The value for `CCCCOCCCNc1ncnc2c1[nH]c1ccccc12` was 1050 nM; that for `CCN(CC)C(=O)C1CCN(S(=O)(=O)c2ccc3oc4ccccc4c3c2)CC1` was 3960 nM; that for `COc1ccc(NC(=O)c2sc3ncnc(N4CCN(c5ccccn5)CC4)c3c2C)cc1Cl` was 4080 nM. As to `Cc1ccccc1C(=O)N1CCN(c2ccc(NC(=O)CSc3ccc(Cl)cc3)cc2)CC1`, the concentration at half-maximal activity (AC50) was 4230 nM. `CC(C)(O)/C=C/C(=O)C(C)(O)C1C(O)CC2(C)C3CC=C4C(C=C(O)C(=O)C4(C)C)C3(C)C(=O)CC12C` (stereo not given): the concentration at half-maximal activity (AC50) was 1830 nM. Consider `Cc1ccc(-c2nc(-c3ccccn3)no2)cc1`, for which the half-maximal activity concentration (AC50) was 1960 nM.

`Cc1cccc(-n2ncc(Cl)c(Cl)c2=O)c1`: the AC50 is 5800 nM. The value for `CCCc1nc([N+](=O)[O-])c(S(=O)(=O)c2ccccc2)n1CC(C)C` was 7390 nM; that for `CS(=O)(=O)c1ccc(C(=O)OCC(=O)Nc2cccnc2Cl)cc1[N+](=O)[O-]` was 9090 nM. As to `Cc1cccc(C)c1NC(=O)CN(C)C(=O)c1cccc(S(=O)(=O)N2CCN(c3ccc(F)cc3)CC2)c1`, the half-maximal activity concentration (AC50) was 2200 nM. Consider `CCN(c1ccccc1)S(=O)(=O)c1ccc(NC(=O)c2nc(S(C)(=O)=O)ncc2Cl)cc1`, for which the concentration at half-maximal activity (AC50) was 562 nM. Consider `COC(=O)c1ccccc1NC(=O)c1nc(S(=O)(=O)Cc2ccccc2)ncc1Cl`, for which the half-maximal activity concentration (AC50) was 428 nM. With `CCCCOc1ccc(Br)cc1CSC(=N)N`, the AC50 is 1370 nM. Consider `CCOC(=O)c1oc2ccc(S(=O)(=O)n3nc(-c4ccc(OC)cc4)cc3N)cc2c1C`, for which the concentration at half-maximal activity (AC50) is 1990 nM. In the case of `CC(=O)Nc1nc(C)c(-c2csc(Nc3cccc(C(C)=O)c3)n2)s1`, the concentration at half-maximal activity (AC50) was 1670 nM. As to `CCC(=O)NC(c1ccc(Cl)cc1Cl)c1ccc2cccnc2c1O` (stereo not given), the AC50 was 1190 nM. Take `COc1ccccc1CNc1nc(NCc2ccccc2SC)c2sccc2n1`: the concentration at half-maximal activity (AC50) is 4480 nM.

As to `C=C1C(=O)C23C(O)C1CCC2C12COC3(O)C(O)C1C(C)(C)CCC2O` (stereo not given), the AC50 was 3300 nM. On to `Cc1ccc(C)c(S(=O)(=O)N2CCN(Cc3ccc(O)c4ncccc34)CC2)c1`, for which the AC50 is 2840 nM. For `O=C(Nc1ccc(Br)cc1)c1ccc(F)c(S(=O)(=O)NCc2cccs2)c1`, the AC50 is 3050 nM. As for `CN(C(=O)COc1ccccc1C(=O)NCCOc1ccccc1)c1ccccc1`, the AC50 is 1570 nM.

`C#CC(=O)N(c1cc(OC)ccc1OC)C(C(=O)NC1CCCC1)c1cccs1` (stereo not given): the concentration at half-maximal activity (AC50) is 4570 nM. Regarding `COc1ccccc1OCC(O)Cn1c(=N)n(Cc2ccccc2)c2ccccc21` (stereo not given), the concentration at half-maximal activity (AC50) is 4010 nM. For `Cc1cccc(NC(=O)c2nc(S(=O)(=O)Cc3ccccc3)ncc2Cl)c1`, the concentration at half-maximal activity (AC50) is 2660 nM. Turning to `CC[C@H](C)C(=O)O[C@H]1C[C@@H](C)C=C2C=C[C@H](C)[C@H](CC[C@@H]3C[C@@H](O)CC(=O)O3)[C@H]21`, the half-maximal activity concentration (AC50) was 1620 nM. On to `Fc1ccc2[nH]c3c(N4CCN(c5ccccc5)CC4)ncnc3c2c1`, for which the AC50 was 3780 nM.

`COc1ccc(C(NC(C)=O)c2cc(Cl)c3cccnc3c2O)cc1OC` (stereo not given): the half-maximal activity concentration (AC50) was 3450 nM.

As for `CCOC(=O)c1c(C)[nH]c2c1-c1ccccc1C(=O)C2=O`, the concentration at half-maximal activity (AC50) is 496 nM. The value for `COc1ccccc1-c1cc(C(F)(F)F)nc(S(C)(=O)=O)n1` was 4060 nM; that for `CCn1cc(CN(C)S(=O)(=O)c2ccc3ccccc3c2)c(C)n1` was 1560 nM; that for `NC(=O)CC(NC(=O)c1ccc(Br)cc1)c1ccc(N2CCCCCC2)c([N+](=O)[O-])c1` (stereo not given) was 7660 nM. In the case of `CCCn1c(NC(=O)c2ccc(Cl)c(S(=O)(=O)N3CCCC3)c2)nc2ccccc21`, the AC50 was 8390 nM. For `COCCN(C(=O)COC(=O)C1CCC(C(C)(C)C)CC1)c1c(N)n(Cc2ccccc2)c(=O)[nH]c1=O` (stereo not given), the AC50 was 5150 nM.

Regarding `COC(=O)c1ccc(N2CCN(S(=O)(=O)c3ccc(C)cc3)CC2)c([N+](=O)[O-])c1`, the AC50 is 3880 nM. On to `CSc1cccc(NS(=O)(=O)c2ccc3c(c2)CCN3C(C)=O)c1`, for which the AC50 was 1490 nM.

For `O=S(=O)(c1cc(F)ccc1F)N1CCN(c2ncnc3ccccc23)CC1`, the AC50 was 1850 nM. Then `C=CS(=O)(=O)c1sc(Cl)c(N2CCOCC2)c1[N+](=O)[O-]`, with 1310 nM; and `CC(C)(C)n1nnnc1C(c1ccc(C(F)(F)F)cc1)N(Cc1ccccc1)Cc1ccco1` (stereo not given), with 4740 nM; and `CCC1CCCCN1C(=O)c1cc(COc2ccc3ncccc3c2)on1` (stereo not given), with 460 nM. Consider `O=C(Nc1nc(-c2ccccn2)cs1)c1cccc(S(=O)(=O)N2CCOCC2)c1`, for which the AC50 is 1520 nM. For `COc1cc2nc(N3CCN(c4cc(C)ccc4C)CC3)nc(N)c2cc1OC`, the AC50 is 5440 nM. With `O=C(Nc1ccc(Cl)cc1)c1cc(S(=O)(=O)N2CCOCC2)cs1`, the half-maximal activity concentration (AC50) was 4230 nM.

As to `Cc1cc(=O)oc2c3c(cc(OCC(=O)Nc4ccc(CCO)cc4)c12)OC(C)(C)CC3`, the AC50 was > 70000 nM (inactive).

Regarding `Cc1cccnc1CN1CCN(C(=O)c2cc(COc3ccc4ncccc4c3)on2)CC1`, the concentration at half-maximal activity (AC50) is 2100 nM. Consider `C=C(C)C(=O)O[C@H]1C/C(C)=C\C(=O)/C=C(\C)[C@H](O)[C@@H]2OC(=O)C(=C)[C@@H]21`, for which the AC50 is 3020 nM. Then `COc1ccc(NS(=O)(=O)c2ccc(C(=O)N3CCCCCC3)cc2)cc1`, with 4510 nM; and `O=c1[nH]c2ccccc2n1C1CCN(C(c2cccs2)c2nnnn2Cc2ccccc2)CC1` (stereo not given), with 2980 nM; and `COC(=O)c1cc2c(n1S(=O)(=O)c1ccc(C)cc1)C(=O)C(=O)c1[nH]cc(C(=O)OCc3ccccc3)c1-2`, with 1200 nM. Take `CC(C)(C)n1ncc2c(=O)n(Cc3cccc(Cn4cnc5c(cnn5C(C)(C)C)c4=O)c3F)cnc21`: the AC50 was 1090 nM. For the compound `Cc1ccnc(N/C=C(/NC(=O)c2ccccc2)C(=O)N/N=C\c2ccc(F)cc2)n1`, the AC50 is > 70000 nM (inactive). Turning to `C[C@H](O)C#Cc1ccc2c(c1)O[C@@H](CN(C)Cc1ccc(-c3ccccc3)cc1)[C@H](C)CN([C@@H](C)CO)S2(=O)=O`, the AC50 was 10300 nM. Take `O=S(=O)(c1ccc2c(c1)OCCO2)N1CCN(c2ncnc3sccc23)CC1`: the AC50 was 1450 nM. The value for `O=C1CC(Sc2nnc(-c3ccccc3O)o2)C(=O)N1c1ccccc1` (stereo not given) was 12900 nM; that for `O=C(Nc1ccc(-c2nc3ncccc3o2)cc1)c1ccc([N+](=O)[O-])o1` was 1340 nM; that for `CC(C)c1nc(SCC(=O)Nc2cccc(C(F)(F)F)c2)c2c(=O)n(C)c(=O)n(C)c2n1` was 2700 nM. For the compound `CCCCCn1c(=N)n(CC(O)COc2ccccc2OC)c2ccccc21` (stereo not given), the concentration at half-maximal activity (AC50) was 2120 nM.

For `O=C(NCc1cccnc1)/C(=C/c1ccc(-c2ccc(Cl)cc2)o1)S(=O)(=O)c1ccccc1`, the AC50 is 5350 nM. Then `CCOc1cc(/C=C2\CN(CC)C/C(=C\c3ccc(O)c(OCC)c3)C2=O)ccc1O`, with 2120 nM; and `C=CCC[C@H](Cc1ccc(F)cc1)C(=O)OC[C@@H](Cc1c[nH]c2ccccc12)NC(=O)[C@H](CC=C)CC(=O)N(CCO)Cc1ccccc1`, with 8660 nM; and `Cc1ccn2cc(-c3ccc(O)c(O)c3)nc2c1`, with 2440 nM. `CCCC(=O)NC(c1cccs1)c1cc(Cl)c2cccnc2c1O` (stereo not given): the half-maximal activity concentration (AC50) is 3160 nM. Regarding `CSc1nnc(NC(=O)c2nc(S(=O)(=O)Cc3ccccc3)ncc2Cl)s1`, the half-maximal activity concentration (AC50) was 1350 nM. As to `O=[N+]([O-])c1cc2c(c(CSc3nnc(Nc4ccccc4)s3)c1)OCOC2`, the AC50 was 3620 nM. Take `O=c1[nH]c(Nc2nc3ccccc3o2)nc2c1CCCC2`: the concentration at half-maximal activity (AC50) is 7710 nM. For the compound `COc1ccc(CS(=O)(=O)/C(Cl)=C(/Cl)C(=O)Nc2ccc(OC)nc2)cc1`, the half-maximal activity concentration (AC50) was < 260 nM. For the compound `CCN(CC)S(=O)(=O)c1cccc(NC(=O)CNc2cccc(S(=O)(=O)N3CCOCC3)c2)c1`, the AC50 was 865 nM. As for `CC(CC(=O)N1CCN(c2cccc(Cl)c2)CC1)S(=O)(=O)c1ccc2c(c1)NC(=O)CO2` (stereo not given), the AC50 is 3990 nM.

Take `Cc1ccc(S(=O)(=O)c2ncccc2[N+](=O)[O-])cc1`: the half-maximal activity concentration (AC50) was 1910 nM. In the case of `CCOC(=O)c1c(NC(=O)c2nn(CC)cc2Br)sc(C)c1C`, the AC50 is 11000 nM.

As to `O=C(OCc1ccccc1)N(CCCCN(CCCNCc1ccccc1)C(=O)OCc1ccccc1)CCCNCc1ccccc1`, the concentration at half-maximal activity (AC50) is 5360 nM. Regarding `Nc1ncnc2c1c(-c1ccc(Oc3ccccc3)cc1)cn2C1CCCC1`, the AC50 is 658 nM. With `CCOc1ccccc1NC(=O)c1nc(S(=O)(=O)Cc2ccccc2)ncc1Cl`, the concentration at half-maximal activity (AC50) is 376 nM. In the case of `CCCOC(=O)c1ccc(OCC(O)Cn2c(C)nc3ccccc32)cc1` (stereo not given), the AC50 was 620 nM. The value for `O=C(/C=C/Sc1ncn[nH]1)c1ccc(Cl)cc1` was 9760 nM; that for `O=C(c1cccc(S(=O)(=O)N2CCN(c3ccccc3)CC2)c1)N1CCCC(C(F)(F)F)C1` (stereo not given) was 2680 nM. Turning to `Cc1ccc(Nc2nc(NCc3ccco3)c3ccccc3n2)cc1`, the concentration at half-maximal activity (AC50) was 9840 nM. Then `Cc1c(CCOC(=O)C23CC4(C)CC(C)(CC(C)(C4)C2)C3)sc[n+]1CC(=O)c1ccccc1`, with 5840 nM; and `COC(=O)C1=C(c2ccc(OCc3ccccc3)cc2)C[C@@H]2CC[C@H]1N2C(=O)NCc1ccc(C(C)(C)C)cc1`, with 6840 nM; and `O=C(c1ccc2c(=O)n(-c3ccccc3)c(=S)[nH]c2c1)N1CCCCC1`, with 1440 nM. On to `O=S(=O)(Nc1cccc2ncccc12)c1cccs1`, for which the concentration at half-maximal activity (AC50) was 4300 nM.

Turning to `Cc1ccnc2c1ccc1c(C)ccnc12`, the AC50 was 857 nM. Turning to `CCOC(=O)c1cnc(-n2nc(C)cc2C)nc1NNc1cc(C)nc(-c2ccccc2)n1`, the half-maximal activity concentration (AC50) was 3310 nM. Then `Cc1[nH]nc2ccc(-c3cncc(OC[C@@H](N)Cc4c[nH]c5ccccc45)c3)cc12`, with 1770 nM; and `O=C(Nc1ccc(S(=O)(=O)N2CCN(Cc3ccccc3)CC2)cc1)c1cnccn1`, with 1650 nM.

For `CCOC(=O)c1c(-c2ccccc2)oc2cc(CN(C)C)c(O)c(CN(C)C)c12`, the half-maximal activity concentration (AC50) was 7810 nM. As to `Oc1cc(Nc2cccnc2)cc2cccnc12`, the half-maximal activity concentration (AC50) is 2120 nM.
